Laboratory results as given in patent publication US4038395A, “Compositions of and method of treating with the alpha-isomer of 2-chloro-9-[3'-(N'-2-hydroxyethylpiperazino-N)-propylidene]-thiaxanthene , carboxylic acid esters thereof and acid addition salts of these compounds” (Kefalas A/S, priority 1973, dated 1977).
Counter-ions that a name gives are not always drawn. Like-named read-outs stand apart in the source and are kept apart here.

Columns and labels:
[1] = test system: methylphenidate-induced stereotyped gnawing; test: Methylphenidate antagonism in mice (stereotyped gnawing); type: in vivo, male mice (NMRI/BOM SPF)
From the text: (§1) Alpha-clopenthixol and its decanoic acid ester have been tested for neuroleptic activity with standard reliable test methods. In the testing alpha- and beta-clopenthixol (alpha-CPT and beta-CPT) have been compared with a sample of clopenthixol (CPT) containing 34% alpha-CPT as determined by I.R. spectrophotometry.
Pedersen V. and A. V. Christensen: "Antagonism of methylphenidate-induced stereotyped gnawing in mice". Acta pharmacol. et toxicol. 1972, 31, 488-496.
Male mice (NMRI/BOM SPF, 18-25 g) were given an intraperitoneal dose of test compound. Two hours later 60 mg/kg of methylphenidate hydrochloride were injected subcutaneously, and immediately thereafter the animals were placed in cages, 2 mice in each cage, for 1 hour. The cages which during the experiment were placed on corrugated paper, are described under apomorphine antagonism on page 4. In this situation control mice, when given this dose of methylphenidate, will bite the corrugated paper (gnaw-compulsion). All compounds were tested at 5 dose levels using 5 pairs of mice per dose. Percentage non-biters was plotted on log.-probit paper against dose and approximate ED50 values were read from the diagrams.

[2] = test system: apomorphine-induced vomiting in dogs; test: Apomorphine antagonism in dogs (vomiting); type: in vivo, Adult purebred Beagles
Method: Adult purebred Beagles of either sex from our own stock were used.
Four dogs were used for each dose level of the drug, which was injected subcutaneously at the back of the neck. At different times after the drug administration the dogs were then challenged with apomorphine according to an "up and down"-schedule using the dose-range 25-400 μg/kg i.v. geometrically spaced. […] In this way it was possible to estimate at which level of apomorphine the dogs were protected at a given time. The dogs were fed half an hour before testing to secure an easy vomiting act.

mice = test: Acute toxicity upon intravenous injection in mice; type: in vivo, male mice (NMRI/BOM SPF); details: i.v.; for LD50: fasted 24 hours
Method: (§2) Acute toxicity upon intravenous injection has been tested using groups of five male mice (NMRI/BOM SPF, 18-25 g), fasted for 24 hours. Three or four dose-levels were needed to determine LD50 values according to Miller and Tainter. Estimation of the ED50 and its error by means of logarithmicprobit graph paper.

[3] = test system: apomorphine-induced gnaw-compulsion; test: Apomorphine antagonism in rats (gnaw-compulsion); type: in vivo, male rats (Wistar/Af/Han/Mo)(Han 67) SPF; details: for ED50: apomorphine 10 mg/kg s.c. 2 h later
From the text: as §1
The test method used is a slight modification of the test described by Janssen, P.A.J., Niemegeers, C.J.E. and Schellekens, K.H.L., Arzneimittel-Forschung, 1965, 15, 104-117. Male rats (Wistar/Af/Han/Mo)(Han 67) SPF, 230-270 g) were given test substance intraperitoneally (9 animals per group). Two hours later apomorphine (10 mg/kg) was injected subcutaneously and the animals were placed in individual cages for one hour. A cage consisted of a 30 cm high perspex box (12 × 25 cm), without bottom and lid, which during the experiment was placed on corrugated paper. […] Percentage non-biters was plotted on log-probit paper against dose and the ED50 was read from the diagram.

human beings = test: Administration to human beings (neuroleptic action); type: in vivo; details: single intramuscular injection of about 20 - 100 mg in a light vegetable oil
From the text: Alpha-clopenthixol or an ester thereof and the non-toxic acid addition salts thereof (in the following collectively called "active ingredients") may be administered to animals such as dogs, cats, horses, sheeps or the like, including human beings, both orally and parenterally, and may be used for example in the form of tablets, capsules, powders, syrups or in the form of the usual sterile solutions for injection. Results upon administration to human beings have been very gratifying.
Results upon administration to human beings of the compositions of the invention have been very gratifying. Preferably, however, the compositions are in the form of sterile solutions or suspensions for injection, and in a preferred embodiment of the invention injectable solutions may be prepared from a non-toxic injectable fat or oil, e.g. light vegetable oil, sesam oil, olive oil, arachis oil or ethyl oleate, and they may additionally contain gelling agents, e.g. aluminium stearate, to delay absorption within the body. Such oily solutions have a very prolonged activity when […] intramuscularly, and satisfactory neuroleptic action has been produced by a single intramuscular injection of about 20 - 100 mg of Lu 8- 008 dissolved in a light vegetable oil for as long as 2-4 weeks.

[4] = Acute toxicity upon intravenous injection in mice; type: in vivo, male mice (NMRI/BOM SPF); details: mouse, in vivo, iv, fasted 24 hours
Method: as §2

[5] = dogs, 10 mg/kg s.c., aqueous solution
[6] = dogs, 10 mg/kg s.c., depot-preparation
[7] = dogs, both dose levels (10 and 20 mg/kg s.c.)

Cl.Cl.OCCN1CCN(CCC=C2c3ccccc3Sc3ccc(Cl)cc32)CC1 [CPT 2 HCl, 2-chloro-9-[3'-(N'-2-hydroxyethylpiperazino-N)-propylidene]-thiaxanthene]
% Non-biters ([1]; 0.63 mg/kg i.p.): 20% | % Non-biters ([1]; 1.25 mg/kg i.p.): 60% | % Non-biters ([1]; 2.5 mg/kg i.p.): 80% | % Non-biters ([1]; 5 mg/kg i.p.): 100% | % Non-biters ([1]; 10 mg/kg i.p.): 100% | ED50 (approximate) ([1]; i.p., methylphenidate hydrochloride 60 mg/kg s.c. 2 h later): 1.2 mg/kg i.p. | duration of protection against apomorphine ([2]; dogs, 10 mg/kg s.c.): 3 days | duration of heavy sedation [2, 5]: about 24 hours | time p.i. at which maximal protection against apomorphine was afforded [2, 5]: 4 h | maximal level of protection against apomorphine (times threshold) ([2]; dogs, 10 mg/kg s.c., aqueous solution, 4 hours p.i.): about 16 times threshold | protection against apomorphine at day 3 ([2]; dogs, 10 mg/kg s.c., aqueous solution, day 3): restricted to the threshold dose of apomorphine | protection against apomorphine at day 4 ([2]; dogs, 10 mg/kg s.c., aqueous solution, day 4): returned to control level | sedation ([2]; dogs, 10 mg/kg s.c., aqueous solution, from 4 h p.i.): heavily sedated | LD50 (mice): 111 ± 10 mg/kg i.v. | % Non-biters ([3]; 2.5 mg/kg i.p.): 33% | % Non-biters ([3]; 5 mg/kg i.p.): 44% | % Non-biters ([3]; 10 mg/kg i.p.): 67% | % Non-biters ([3]; 20 mg/kg i.p.): 78% | ED50 ([3]; i.p.): 5.5 mg/kg i.p.

CCCCCCCCCC(=O)OCCN1CCN(CCC=C2c3ccccc3Sc3ccc(Cl)cc32)CC1 [Lu 8-008, alpha-isomer of the decanoic acid ester of 2-chloro-9-[3'(N'-2-hydroxyethylpiperazino-N)-propylidene]-thiaxanthene]
duration of protection against apomorphine ([2]; dogs, 10 mg/kg s.c.): 14 days | maximal level of protection (times threshold dose of apomorphine) ([2]; dogs, 10 mg/kg s.c., 5% solution): 2 times threshold | maximal level of protection (times threshold dose of apomorphine) ([2]; dogs, 10 mg/kg s.c., 10% solution): 4 times threshold | sedation [2, 6]: at no time displayed any signs of sedation | time course of protection level [2, 6]: reached smoothly during the first week p.i., and then declined smoothly during the second week | prolongation of the protection against apomorphine, in words ([2]; dogs, 10 mg/kg s.c., depot-preparation, 5% or 10% solution): considerable prolongation of the protection against apomorphine | duration of protection against apomorphine ([2]; dogs, 20 mg/kg s.c., depot-preparation): 3 weeks | maximal level of protection (times threshold) ([2]; dogs, 20 mg/kg s.c., during the first week): 8 times threshold | sedation ([2]; dogs, 20 mg/kg s.c., first week): slightly sedated | duration of protection, 10% solution compared with 5% solution [2, 7]: the duration was equal | maximal protection, 10% solution compared with 5% solution [2, 7]: higher and/or more persisting maximal protection against apomorphine | duration of satisfactory neuroleptic action (human beings): 2-4 weeks

OCCN1CCN(CCC=C2c3ccccc3Sc3ccc(Cl)cc32)CC1 [alpha-CPT 2 HCl, alpha-isomer of 2-chloro-9-[3'-(N'-2-hydroxyethylpiperazino-N)-propylidene]-thiaxanthene]
% Non-biters ([1]; 0.31 mg/kg i.p.): 20% | % Non-biters ([1]; 0.63 mg/kg i.p.): 60% | % Non-biters ([1]; 1.25 mg/kg i.p.): 60% | % Non-biters ([1]; 2.5 mg/kg i.p.): 100% | % Non-biters ([1]; 5 mg/kg i.p., 5 mg/kg): 100% | ED50 ([1]; Mus musculus, ip, methylphenidate hydrochloride 60 mg/kg s.c. 2 h later, read-out: ED50 (approximate)): 0.65 mg/kg | LD50 [4]: 105 ± 10 mg/kg | % Non-biters ([3]; 1.25 mg/kg i.p.): 11% | % Non-biters ([3]; 2.5 mg/kg i.p.): 44% | % Non-biters ([3]; 5 mg/kg i.p.): 100% | % Non-biters ([3]; 10 mg/kg i.p., 10 mg/kg): 100% | ED50 ([3]; Rattus norvegicus, ip, read-out: ED50): 2.4 mg/kg

OCCN1CCN(CCC=C2c3ccccc3Sc3ccc(Cl)cc32)CC1 [alpha-CPT, alpha-isomer of 2-chloro-9-[3'-(N'-2-hydroxyethylpiperazino-N)-propylidene]-thiaxanthene]
activity relative to CPT ([1]; i.p., vs CPT (containing 34% alpha-CPT)): about twice as active as CPT | activity relative to CPT (times more active) ([3]; i.p., vs CPT): 2- 3 times

CN1CCc2cccc3c2[C@H]1Cc1ccc(O)c(O)c1-3 [apomorphine]
minimal effective dose ([2]; Canis lupus familiaris, iv, Beagle dogs, read-out: threshold-dose of apomorphine for provoking vomiting): 0.025 mg/kg

OCCN1CCN(CCC=C2c3ccccc3Sc3ccc(Cl)cc32)CC1 [beta-CPT 2 HCl]
% Non-biters ([1]; 5 mg/kg i.p., 5 mg/kg): 60% | % Non-biters ([1]; 10 mg/kg i.p.): 20% | % Non-biters ([1]; 20 mg/kg i.p.): 100% | % Non-biters ([1]; 40 mg/kg i.p.): 80% | % Non-biters ([1]; 80 mg/kg i.p.): 80% | LD50 (mice): 134 ± 10 mg/kg i.v. | % Non-biters ([3]; 10 mg/kg i.p., 10 mg/kg): 11% | % Non-biters ([3]; 20 mg/kg i.p.): 0% | % Non-biters ([3]; 40 mg/kg i.p.): 11% | % Non-biters ([3]; 80 mg/kg i.p.): 11% | ED50 ([3]; i.p.): none

OCCN1CCN(CCC=C2c3ccccc3Sc3ccc(Cl)cc32)CC1 [beta-CPT, beta-isomer of 2-chloro-9-[3'-(N'-2-hydroxyethylpiperazino-N)-propylidene]-thiaxanthene]
inhibition of methylphenidate-induced compulsive gnawing, in words ([1]; 20 mg/kg i.p.): complete inhibition | inhibition of methylphenidate-induced compulsive gnawing, in words ([1]; doses higher and lower than 20 mg/kg i.p.): only partial inhibition | acute toxicity compared, in words (mice; vs alpha-isomer and the mixture): somewhat less toxic than the alpha-isomer and the mixture | apomorphine antagonism, in words ([3]; doses as high as 80 mg/kg i.p.): almost completely inactive
